Results published in PMC9958709 (Pharmaceuticals, 2023).

How the values were obtained:
[1] = target: butyrylcholinesterase (BuChE) (Homo sapiens, UniProt P06276); assay: biochemical; assay type: biochemical; conditions: for IC50: read-out: BuChE IC50 (µM ± SEM)
Experimental: (§1) The AChE/(BuChE) inhibitory test was measured using a spectrophotometric method developed by Elman et al.. A buffer solution containing phosphate (pH 8.0) of volume 140 μL; 20 μL of each AChE/BuChE solution; and 20 μL of the test sample were incubated at room temperature for 15 min. […] was used to start the reaction, followed by the addition of DTNB. ATCh or BTCh hydrolyzed the reaction of DTNB with thiocholine for 15 min; unrestricted by AChE and BuChE enzymatic hydrolysis. […] Each sample’s inhibitory activity was measured in terms of IC50 ([…]) or μM. For all substances, the IC50 values were derived using a generic graph.

[2] = target: acetylcholinesterase (AChE) (Homo sapiens, UniProt P22303); assay: biochemical; assay type: biochemical; conditions: for IC50: read-out: AChE IC50 (µM ± SEM)
acetylcholinesterase (AChE), sequence (P22303 32-614, species assumed): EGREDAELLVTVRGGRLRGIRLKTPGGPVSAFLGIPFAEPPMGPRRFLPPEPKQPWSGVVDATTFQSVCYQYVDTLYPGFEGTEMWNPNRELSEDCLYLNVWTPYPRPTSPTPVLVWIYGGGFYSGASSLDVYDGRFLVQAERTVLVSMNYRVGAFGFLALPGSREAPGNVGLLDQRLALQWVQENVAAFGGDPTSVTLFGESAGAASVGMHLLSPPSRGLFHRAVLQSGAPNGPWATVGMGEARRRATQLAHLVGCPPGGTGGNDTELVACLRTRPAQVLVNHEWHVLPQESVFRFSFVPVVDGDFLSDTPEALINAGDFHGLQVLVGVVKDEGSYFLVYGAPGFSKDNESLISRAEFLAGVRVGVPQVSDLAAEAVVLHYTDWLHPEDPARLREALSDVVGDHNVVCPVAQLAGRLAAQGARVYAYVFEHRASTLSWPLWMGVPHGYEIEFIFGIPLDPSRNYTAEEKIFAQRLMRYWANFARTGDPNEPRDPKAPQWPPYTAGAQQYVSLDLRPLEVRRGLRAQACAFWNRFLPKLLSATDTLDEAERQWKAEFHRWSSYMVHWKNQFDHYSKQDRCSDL
Experimental: as §1

butyrylcholinesterase (BuChE), sequence (P06276 29-602): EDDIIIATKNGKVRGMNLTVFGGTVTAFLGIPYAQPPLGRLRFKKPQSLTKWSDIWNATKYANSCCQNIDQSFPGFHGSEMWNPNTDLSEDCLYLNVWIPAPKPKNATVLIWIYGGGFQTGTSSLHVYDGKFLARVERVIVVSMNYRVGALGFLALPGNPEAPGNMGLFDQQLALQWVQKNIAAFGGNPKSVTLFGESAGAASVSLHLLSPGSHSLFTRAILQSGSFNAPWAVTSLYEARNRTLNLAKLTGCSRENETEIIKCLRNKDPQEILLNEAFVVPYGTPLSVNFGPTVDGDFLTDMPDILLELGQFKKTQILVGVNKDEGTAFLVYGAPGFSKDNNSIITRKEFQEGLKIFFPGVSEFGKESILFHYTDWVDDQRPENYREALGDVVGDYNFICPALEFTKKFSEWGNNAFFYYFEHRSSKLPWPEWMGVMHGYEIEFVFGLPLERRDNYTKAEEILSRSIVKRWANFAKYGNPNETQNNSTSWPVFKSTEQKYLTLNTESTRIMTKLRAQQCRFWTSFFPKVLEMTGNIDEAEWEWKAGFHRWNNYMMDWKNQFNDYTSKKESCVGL

COc1ccc2[nH]c(-c3cccc([N+](=O)[O-])c3)nc2c1 [Compound 2, 5-Methoxy-2-(3-Nitrophenyl)-1H-Benzo[d]-Imidazole]
IC50 [1]: 5.9 ± 0.1 µM | IC50 [2]: 5.1 ± 0.1 µM

COc1ccc2nc(-c3ccc(-c4nc5ccc(OC)cc5[nH]4)cc3)[nH]c2c1 [Compound 12]
IC50 [1]: 5.8 ± 0.1 µM | IC50 [2]: 5.1 ± 0.1 µM

COc1ccc2[nH]c(-c3ccc(O)cc3)nc2c1 [Compound 15]
IC50 [1]: 0.9 ± 0.001 µM | IC50 [2]: 0.8 ± 0.001 µM

COc1ccc2[nH]c(-c3ccc([N+](=O)[O-])cc3)nc2c1 [Compound 1, 5-Methoxy-2-(4-Nitrophenyl)-1H-Benzo[d]-Imidazole]
IC50 [1]: 1.6 ± 0.1 µM | IC50 [2]: 2.1 ± 0.1 µM

COc1ccc2[nH]c(-c3cc(OC)c(O)c(OC)c3)nc2c1 [Compound 21]
IC50 [1]: 2.7 ± 0.1 µM | IC50 [2]: 2.1 ± 0.1 µM

COc1ccc2[nH]c(-c3ccc(OC)c(O)c3)nc2c1 [Compound 9]
IC50 [1]: 2.1 ± 0.1 µM | IC50 [2]: 2.3 ± 0.1 µM

COc1ccc2[nH]c(-c3cc(OC)c(Br)cc3OC)nc2c1 [Compound 20]
inhibition of butyrylcholinesterase, in words [1]: did not show any activity | inhibition of acetylcholinesterase, in words [2]: did not show any activity

COc1ccc2[nH]c(-c3ccc4ccccc4c3)nc2c1 [Compound 5]
IC50 [1]: 25.8 ± 0.4 µM | IC50 [2]: 25.3 ± 0.4 µM

COc1ccc2[nH]c(-c3ccc(Cl)c(Cl)c3)nc2c1 [Compound 3]
IC50 [1]: 0.08 ± 0.001 µM | IC50 [2]: 0.05 ± 0.001 µM

COc1ccc2[nH]c(-c3cccc(O)c3)nc2c1 [Compound 16]
IC50 [1]: 2.1 ± 0.1 µM | IC50 [2]: 1.3 ± 0.1 µM

COc1ccc2[nH]c(-c3ccccc3[N+](=O)[O-])nc2c1 [Compound 4]
IC50 [1]: 3.6 ± 0.1 µM | IC50 [2]: 3.4 ± 0.1 µM

COc1ccc2[nH]c(-c3c4ccccc4cc4ccccc34)nc2c1 [Compound 13]
inhibition of butyrylcholinesterase, in words [1]: did not show any activity | inhibition of acetylcholinesterase, in words [2]: did not show any activity

COc1ccc2[nH]c(-c3ccc(OCc4ccccc4)cc3)nc2c1 [Compound 7]
IC50 [1]: 5.9 ± 0.1 µM | IC50 [2]: 5.8 ± 0.1 µM

COc1ccc2[nH]c(-c3c(O)ccc4ccccc34)nc2c1 [Compound 14]
inhibition of butyrylcholinesterase, in words [1]: did not show any activity | inhibition of acetylcholinesterase, in words [2]: did not show any activity

COc1ccc2[nH]c(-c3cc(Cl)cc(Cl)c3O)nc2c1 [Compound 10]
IC50 [1]: 0.4 ± 0.001 µM | IC50 [2]: 0.1 ± 0.001 µM

COc1ccc2[nH]c(-c3ccc(C)cc3C)nc2c1 [Compound 6]
IC50 [1]: 5.1 ± 0.2 µM | IC50 [2]: 4.1 ± 0.1 µM

COc1ccc2[nH]c(-c3ccc(N(C)C)cc3)nc2c1 [Compound 8]
IC50 [1]: 4.7 ± 0.1 µM | IC50 [2]: 6.8 ± 0.2 µM

COc1ccc(-c2nc3cc(OC)ccc3[nH]2)c(OC)c1 [Compound 19]
IC50 [1]: 6.8 ± 0.2 µM | IC50 [2]: 9.2 ± 0.2 µM

COc1ccc2[nH]c(-c3cc(Br)ccc3OC)nc2c1 [Compound 17]
IC50 [1]: 3.9 ± 0.1 µM | IC50 [2]: 6.1 ± 0.1 µM

CCOc1ccc(-c2nc3cc(OC)ccc3[nH]2)cc1OC [Compound 18]
IC50 [1]: 9.8 ± 0.3 µM | IC50 [2]: 11.3 ± 0.3 µM

COc1ccc2[nH]c(-c3ccc(Cl)cc3Cl)nc2c1 [Compound 11]
IC50 [1]: 0.3 ± 0.001 µM | IC50 [2]: 0.2 ± 0.001 µM
